# Measurements: US10017504B2, “Piperidine isoxazole and isothiazole orexin receptor antagonists” (MERCK SHARP & DOHME CORP., priority 2014, dated 2018)
# Target: human orexin-2 receptor (Homo sapiens (Human), UniProt O43614)
# Assay: FLIPR Ca2+ Flux Assay, orexin-2 receptor
# Type: cell-based
# Conditions: CHO cells expressing the human orexin-2 receptor; agonist 70 pM Ala-6,12 human orexin-A; read-out: hOX2 FLIPR IC50
# Protocol: In a typical experiment the OX1 and OX2 receptor antagonistic activity of the compounds of the present invention was determined in accordance with the following experimental method. For intracellular calcium measurements, Chinese hamster ovary (CHO) cells expressing the rat orexin-1 receptor or the human orexin-2 receptor, are grown in Iscove's modified DMEM containing 2 mM L-glutamine, […], 1% hypoxanthine-thymidine supplement, 100 U/ml penicillin, 100 μg/ml streptomycin and 10% heat-inactivated fetal calf serum (FCS). The cells are seeded at 20,000 cells/well into Becton-Dickinson black 384-well clear bottom sterile plates coated with poly-D-lysine. All reagents are from GIBCO-Invitrogen Corp. The seeded plates are incubated overnight at 37° C. and 5% CO2. Ala-6,12 human orexin-A as the agonist is prepared as a 1 mM stock solution in 1% bovine serum albumin (BSA) and diluted in assay buffer (HBSS containing 20 mM HEPES, 0.1% BSA and 2.5 mM probenecid, pH7.4) for use in the assay at a final concentration of 70 pM. Test compounds are prepared as 10 mM stock solution in DMSO, then diluted in 384-well plates, first in DMSO, then assay buffer. On the day of the assay, cells are washed 3 times with 100 μl assay buffer and then incubated for 60 min (37° C., 5% CO2) in 60 μl assay buffer containing 1 μM Fluo-4AM ester, 0.02% pluronic acid, and 1% BSA. The dye loading solution is then aspirated and cells are washed 3 times with 100 μl assay buffer. 30 μl of that same buffer is left in each well. Within the Fluorescent Imaging Plate Reader (FLIPR, Molecular Devices), test compounds are added to the plate in a volume of 25 μl, incubated for 5 min and finally 25 μl of agonist is added. Fluorescence is measured for each well at 1 second intervals for 5 minutes and the height of each fluorescence peak is compared to the height of the fluorescence peak induced by 70 pM Ala-6,12 orexin-A with buffer in place of antagonist. […] The intrinsic orexin receptor antagonist activity of a compound which may be used in the present invention may be determined by these assays.
# human orexin-2 receptor, sequence (O43614 whole entry): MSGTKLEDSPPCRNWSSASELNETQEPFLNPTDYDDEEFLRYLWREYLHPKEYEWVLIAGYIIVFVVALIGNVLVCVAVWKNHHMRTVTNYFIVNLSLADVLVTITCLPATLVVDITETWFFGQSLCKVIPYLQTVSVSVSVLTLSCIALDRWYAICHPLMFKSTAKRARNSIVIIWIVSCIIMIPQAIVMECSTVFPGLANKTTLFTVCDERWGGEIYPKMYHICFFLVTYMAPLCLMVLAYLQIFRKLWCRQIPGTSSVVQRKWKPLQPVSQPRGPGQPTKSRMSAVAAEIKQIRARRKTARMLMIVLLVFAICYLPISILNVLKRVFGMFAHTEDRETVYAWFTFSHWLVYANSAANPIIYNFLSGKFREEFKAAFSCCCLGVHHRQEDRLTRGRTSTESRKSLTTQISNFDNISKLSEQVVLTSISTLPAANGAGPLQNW
row,SMILES,IC50
1,"C[C@@H]1CC[C@@H](c2cc(C(C)(O)C3CC3)no2)CN1C(=O)c1ccccc1-n1nccn1 (single isomer, unassigned) [Example 52]",47.3 nM
2,"CC[C@](C)(O)c1cc([C@@H]2CC[C@@H](C)N(C(=O)c3ccccc3-n3nccn3)C2)no1 [Example 12, (2-(2H-1,2,3-triazol-2-yl)phenyl)((2R,5R)-5-(5-((S)-2-hydroxybutan-2-yl)isoxazol-3-yl)-2-methylpiperidin-1-yl)methanone]",15 nM
3,"C[C@@H]1CC[C@@H](c2cc(C(C)(C)O)no2)CN1C(=O)c1ccccc1-c1cnccn1 [Example 37, 2-(5-{(3R,6R)-6-Methyl-1-[(2-pyrazin-2-ylphenyl)carbonyl]piperidin-3-yl}isoxazol-3-yl)propan-2-ol]",1030 nM
4,"C[C@@H]1CC[C@@H](c2cc(C(C)(C)O)no2)CN1C(=O)c1ccccc1OCC(F)(F)F [Example 36, 2-{5-[(3R,6R)-6-Methyl-1-{[2-(2,2,2-trifluoroethoxy)phenyl]carbonyl}piperidin-3-yl]isoxazol-3-yl}propan-2-ol]",212 nM
5,"COC(=O)c1ccccc1C(=O)N1C[C@H](c2cc(C(C)(C)O)sn2)CC[C@H]1C [Example 67, Methyl 2-({(2R,5R)-5-[5-(1-hydroxy-1-methylethyl)isothiazol-3-yl]-2-methylpiperidin-1-yl}carbonyl)benzoate]",43.6 nM
6,"C[C@@H]1CC[C@@H](c2cc(C(C)(C)O)no2)CN1C(=O)c1nccnc1-n1cccn1 [Example 25, 2-{5-[(3R,6R)-6-methyl-1-{[3-(1H-pyrazol-1-yl)pyrazin-2-yl]carbonyl}piperidin-3-yl]isoxazol-3-yl}propan-2-ol]",799 nM
7,"C[C@@H]1CC[C@@H](c2cc(C(C)(C)O)no2)CN1C(=O)c1nccnc1-c1ccccn1 [Example 28, 2-(5-{(3R,6R)-6-Methyl-1-[(3-pyridin-2-ylpyrazin-2-yl)carbonyl]piperidin-3-yl}isoxazol-3-yl)propan-2-ol]",1420 nM
8,"C[C@@H]1CC[C@@H](c2cc(C(C)(C)O)no2)CN1C(=O)c1cccnc1-c1ccccc1 [Example 33, 2-(5-{(3R,6R)-6-Methyl-1-[(2-phenylpyridin-3-yl)carbonyl]piperidin-3-yl}isoxazol-3-yl)propan-2-ol]",134 nM
9,"C[C@@H]1CC[C@@H](c2cc(C(C)(C)O)no2)CN1C(=O)c1cc(Cl)ccc1-n1nccn1 [Example 27, 2-{5-[(3R,6R)-1-{[5-Chloro-2-(2H-1,2,3-triazol-2-yl)phenyl]carbonyl}-6-methylpiperidin-3-yl]isoxazol-3-yl}propan-2-ol]",604 nM
10,"C[C@@H]1CC[C@@H](c2cc(C(C)(C)O)sn2)CN1C(=O)c1cccnc1OCC(F)F [Example 69, 2-{3-[(3R,6R)-1-{[2-(2,2-Difluoroethoxy)pyridin-3-yl]carbonyl}-6-methylpiperidin-3-yl]isothiazol-5-yl}propan-2-ol]",42.8 nM
11,"C[C@@H]1CC[C@@H](c2cc(C(C)(C)O)no2)CN1C(=O)c1ncccc1-c1ccccc1 [Example 34, 2-(5-{(3R,6R)-6-Methyl-1-[(3-phenylpyridin-2-yl)carbonyl]piperidin-3-yl}isoxazol-3-yl)propan-2-ol]",264 nM
12,"C[C@@H]1CC[C@@H](c2cc(C(C)(C)O)sn2)CN1C(=O)c1ccc(F)cc1-n1nccn1 [Example 61, 2-{3-[(3R,6R)-1-{[4-Fluoro-2-(2H-1,2,3-triazol-2-yl)phenyl]carbonyl}-6-methylpiperidin-3-yl]isothiazol-5-yl}propan-2-ol]",18.6 nM
13,"C[C@@H]1CC[C@@H](c2cc([C@H](O)C(F)(F)F)no2)CN1C(=O)c1ccsc1-c1ncccn1 [Example 48, (1S)-2,2,2-Trifluoro-1-(5-{(3R,6R)-6-methyl-1-[(2-pyrimidin-2-ylthiophen-3-yl)carbonyl]piperidin-3-yl}isoxazol-3-yl)ethanol]",113 nM
14,"C[C@@H]1CC[C@@H](c2cc(C3CCCO3)no2)CN1C(=O)c1ccccc1-n1nccn1 (stereo partly drawn) [Example 56, (2R,5R)-2-Methyl-5-[3-(tetrahydrofuran-2-yl)isoxazol-5-yl]-1-{[2-(2H-1,2,3-triazol-2-yl)phenyl]carbonyl}piperidine]",311 nM
15,"COC(C)(C)c1cc([C@@H]2CC[C@@H](C)N(C(=O)c3ccccc3-n3nccn3)C2)no1 [Example 19, (2R,5R)-5-[5-(1-methoxy-1-methylethyl)isoxazol-3-yl]-2-methyl-1-{[2-(2H-1,2,3-triazol-2-yl)phenyl]carbonyl}piperidine]",27.3 nM
16,"CCOc1ccccc1C(=O)N1C[C@H](c2cc(C(C)(C)O)on2)CC[C@H]1C [Example 5, (2-Ethoxyphenyl)((2R,5R)-5-(5-(2-hydroxypropan-2-yl)isoxazol-3-yl)-2-methylpiperidin-1-yl)methanone]",1190 nM
17,"C[C@@H]1CC[C@@H](c2cc(C(C)(C)O)no2)CN1C(=O)c1ccccc1C1CC1(F)F (stereo partly drawn) [Example 38, 2-{5-[(3R,6R)-1-{[2-(2,2-Difluorocyclopropyl)phenyl]carbonyl}-6-methylpiperidin-3-yl]isoxazol-3-yl}propan-2-ol]",52.4 nM
18,"COCc1ccccc1C(=O)N1C[C@H](c2cc(C(C)(C)O)no2)CC[C@H]1C [Example 21, 2-{5-[(3R,6R)-1-{[2-(Methoxymethyl)phenyl]carbonyl}-6-methylpiperidin-3-yl]isoxazol-3-yl}propan-2-ol]",1120 nM
19,"CC(C)Oc1ncccc1C(=O)N1C[C@H](c2cc(C(C)(C)O)on2)CC[C@H]1C [Example 6, ((2R,5R)-5-(5-(2-Hydroxypropan-2-yl)isoxazol-3-yl)-2-methylpiperidin-1-yl)(2-isopropoxypyridin-3-yl)methanone]",1840 nM
20,"C[C@@H]1CC[C@@H](c2cc(C(C)(C)O)on2)CN1C(=O)c1cccnc1OCC(F)(F)F [Example 7, ((2R,5R)-5-(5-(2-Hydroxypropan-2-yl)isoxazol-3-yl)-2-methylpiperidin-1-yl)(2-(2,2,2-trifluoroethoxy)pyridin-3-yl)methanone]",227 nM
21,"CC[C@@](C)(O)c1cc([C@@H]2CC[C@@H](C)N(C(=O)c3ccccc3-n3nccn3)C2)no1 [Example 11, (2-(2H-1,2,3-Triazol-2-yl)phenyl)((2R,5R)-5-(5-((R)-2-hydroxybutan-2-yl)isoxazol-3-yl)-2-methylpiperidin-1-yl)methanone]",41.4 nM
22,"C[C@@H]1CC[C@@H](c2cc(C(C)(C)O)sn2)CN1C(=O)c1ccccc1-n1nccn1 [Example 58, 2-{3-[(3R,6R)-6-Methyl-1-{[2-(2H-1,2,3-triazol-2-yl)phenyl]carbonyl}piperidin-3-yl]isothiazol-5-yl}propan-2-ol]",13.9 nM
23,"COC(=O)c1ccccc1C(=O)N1C[C@H](c2cc(C(C)(C)O)no2)CC[C@H]1C [Example 30, Methyl 2-({(2R,5R)-5-[3-(1-hydroxy-1-methylethyl)isoxazol-5-yl]-2-methylpiperidin-1-yl}carbonyl)benzoate]",251 nM
24,"C[C@@H]1CC[C@@H](c2cc([C@@H](O)C(F)(F)F)no2)CN1C(=O)c1ccccc1-n1ncnn1 [Example 46, (1R)-2,2,2-Trifluoro-1-{5-[(3R,6R)-6-methyl-1-{[2-(2H-tetrazol-2-yl)phenyl]carbonyl}piperidin-3-yl]isoxazol-3-yl}ethanol]",356 nM
25,"C[C@@H]1CC[C@@H](c2cc([C@H](O)C(F)(F)F)no2)CN1C(=O)c1ccccc1C1(C#N)CC1 [Example 45, 1-(2-{[(2R,5R)-2-Methyl-5-{3-[(1S)-2,2,2-trifluoro-1-hydroxyethyl]isoxazol-5-yl}piperidin-1-yl]carbonyl}phenyl)cyclopropanecarbonitrile]",41.2 nM
26,"C[C@@H]1CC[C@@H](c2cc(C(C)(C)O)no2)CN1C(=O)c1ccccc1C1(C#N)CC1 [Example 29, 1-[2-({(2R,5R)-5-[3-(1-Hydroxy-1-methylethyl)isoxazol-5-yl]-2-methylpiperidin-1-yl}carbonyl)phenyl]cyclopropanecarbonitrile]",8.8 nM
27,"CCC(C)(O)c1cc([C@@H]2CC[C@@H](C)N(C(=O)c3ccccc3-n3nccn3)C2)on1 (stereo partly drawn) [Example 54, 2-{5-[(3R,6R)-6-Methyl-1-{[2-(2H-1,2,3-triazol-2-yl)phenyl]carbonyl}piperidin-3-yl]isoxazol-3-yl}butan-2-ol]",76.1 nM
28,"C[C@@H]1CC[C@@H](c2cc(C3(O)CCC3)on2)CN1C(=O)c1ccccc1-n1nccn1 [Example 13, 1-{3-[(3R,6R)-6-Methyl-1-{[2-(2H-1,2,3-triazol-2-yl)phenyl]carbonyl}piperidin-3-yl]isoxazol-5-yl}cyclobutanol]",635 nM
29,"C[C@@H]1CC[C@@H](c2cc(C(C)(C)O)sn2)CN1C(=O)c1cscc1-n1nccn1 [Example 66, 2-{3-[(3R,6R)-6-Methyl-1-{[4-(2H-1,2,3-triazol-2-yl)thiophen-3-yl]carbonyl}piperidin-3-yl]isothiazol-5-yl}propan-2-ol]",21.1 nM
